From US4966894A, “Polysulfated heparins for treating diseases caused by retroviruses” (BASF Aktiengesellschaft, priority 1987, dated 1990)

What was measured:
[1] = test system: reverse transcriptase from HIV I; conditions: literature and own experiments, cf. Table 1; cited from earlier work
[2] = background statement; may induce hemorrhages; cited from earlier work
[3] = test system: HIV; conditions: Antiviral Res. 7 [1987], 361; cited from earlier work
[4] = test system: reverse transcriptase of Schmidt-Ruppin D (SR-D) virus; conditions: German Laid-Open Application DOS No. 3,601,136; cited from earlier work
[5] = test system: reverse transcriptase from HIV I; assay: Enzyme test with reverse transcriptase from HIV I; assay type: biochemical; conditions: 50 μg/ml substance; 120 minutes at 37° C.; poly(rA)/oligo(dT)15 matrix, 3H-dTTP
Experimental: I. Enzyme test with reverse transcriptase from HIV I
In the model system described below, the activity of the reverse transcriptase is determined in the presence of an inhibitor, essentially according to Hansen et al. (J. Biol. Chem. 262 [1987], 12393).
The enzyme test has a total volume of 50 μl and contains the following components: 50 mM tris-HCl pH 7.8, 80 mM KCl, 8 mM MgCl2 and 1 mM DTT. This system contains the synthetic polymer poly(rA)/oligo (dT)15 (Boehringer Mannheim) as a matrix, in a concentration of 1 mg/ml. This matrix consists of a synthetic RNA having a length of 100-200 nucleotides,to which short DNA primers having a length of 15 nucleotides are bonded. The DNA primers serve as starting points for the reverse transcriptase. […]
The DNA bound to the exchanger is dried under an infrared lamp, after which the activity is determined by liquid scintillation measurement. The unspecific background is the radioactivity bound to the DEAE filter in the absence of reverse transcriptase in the method described above. […]
The activity of the reverse transcriptase in the presence of a potential inhibitor is expressed as a percentage of the activity in the absence of an inhibitor; or the inhibitory action of a substance (%) is defined as 100% minus the activity in percent.

Substance | inhibitory action on reverse transcriptase of HIV I (in words) [1] | anticoagulant properties [2] | inhibition of HIV replication in vitro [3] | inhibition of reverse transcriptase of SR-D virus [4] | Inhibition % [5]
heparin [Commercial heparin] | could not, however, be confirmed | has anticoagulant properties | selective inhibitor of HIV replication in vitro | inhibits reverse transcriptase | 
heparin [Unfractionated heparin] |  |  |  |  | 0%
